Data: EPA's ToxValDB 9.5 (doi:10.2903/j.efsa.2006.55r)
≈ marks a conversion by molar mass, not a printed value.

Experiments:
Daphnia magna = details: chronic/long-term; duration: 21 days; reproduction
Tagia sp. = details: for LC50: acute, mortality
Colinus virginianus = details: acute, oral, mortality
Anas platyrhynchos = details: for LC50: short-term, oral, feed, mortality
Lepomis macrochirus = details: acute; duration: 96 hours; mortality
Orius insidiosus = experiment: LR50; higher = less toxic; details: not reported; mortality
Aphidius rhopalosiphi = experiment: LR50; higher = less toxic; details: not reported; mortality
Rattus norvegicus = details: for NOAEL: reproduction developmental
Plant = details: not reported; no effects
Apis mellifera = details: acute, duration: 48 hours, mortality

Row | Compound | NOEC (Daphnia magna) [mg/L] | LC50 (Tagia sp.; duration: 14 days) [mg/kg] | LD50 (Colinus virginianus) [mg/kg-day] | LC50 (Anas platyrhynchos) | LC50 (Lepomis macrochirus) [µg/mL] | LR50 (Orius insidiosus) [g/ha] | LR50 (Aphidius rhopalosiphi) [g/ha] | LC50 (Tagia sp.) [mg/kg] | NOEC (Tagia sp.; chronic/long-term) [mg/kg] | LOAEL (Rattus norvegicus; acute, oral, gavage, neurology) [mg/kg-day] | LD50 (Rattus norvegicus; acute, oral, mortality) [mg/kg-day] | NOAEL (Rattus norvegicus; body weight) [mg/kg-day] | NOAEL (Rattus norvegicus; oral, diet, mortality) [mg/kg-day] | NOAEL (Rattus norvegicus; reproduction) [mg/kg-day] | LC50 (Colinus virginianus; diet) [mg/kg] | NOEC (Anas platyrhynchos; reproductive) [mg/kg] | LEL (Plant) [g/ha] | LD50 (Apis mellifera; dermal) [µg/piece] | LD50 (Apis mellifera; oral, unspecified) [µg/piece]
1 | CNC(=O)ON=C(C)SC [Methomyl] | 0.0016 | 19 | 24.2 | 658 mg/kg-day | 0.62 (≈ 3.82 µM) | – | – | – | – | – | – | – | – | – | – | – | – | – | –
2 | CSC(C)=NOC(=O)N(C)SN(C)C(=O)ON=C(C)SC [Thiodicarb] | – | – | 2020 | > 5620 mg/kg | 1.4 (≈ 3.95 µM) | 25.4 | 0.4 | 38.5 | 2 | < 5 | 50 | 1 | 7 | 84 | > 5620 | 500 | 950 | 3.1 | 0.153
